US8846698B2, “Pyrrolo[2,3-d]pyrimidine tropomysin-related kinase inhibitors” (Pfizer Limited, priority 2011, dated 2014)

Target: TRKA (Homo sapiens (Human), UniProt P04629)
Assay: Isolated TRK enzyme assay (HTRF KinEASE-TK), TRKA
Assay type: biochemical
Details: read-out: Trka enzyme (IC50)

TRKA, sequence (P04629 441-796): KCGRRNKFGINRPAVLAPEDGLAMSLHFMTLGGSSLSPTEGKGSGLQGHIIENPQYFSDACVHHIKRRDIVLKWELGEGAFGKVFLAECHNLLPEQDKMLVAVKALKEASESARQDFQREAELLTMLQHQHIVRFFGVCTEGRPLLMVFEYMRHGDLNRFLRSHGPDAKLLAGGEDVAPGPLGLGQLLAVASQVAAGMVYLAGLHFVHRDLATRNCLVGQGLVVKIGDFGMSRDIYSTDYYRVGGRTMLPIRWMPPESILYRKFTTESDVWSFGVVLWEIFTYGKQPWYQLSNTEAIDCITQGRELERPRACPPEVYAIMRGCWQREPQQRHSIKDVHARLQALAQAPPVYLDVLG

Row | SMILES | IC50
1 | CC(C)n1cc(C(=O)c2cncc(NC(=O)c3ncncc3Br)c2)c2cncnc21 [Example 472, 5-Bromo-pyrimidine-4-carboxylic acid [5-(7-isopropyl-7H-pyrrolo[2,3-d]pyrimidine-5-carbonyl)-pyridin-3-yl]-amide] | 1.72 µM
2 | CC(C)n1cc(C(=O)c2cncc(NC(=O)c3ccc(C#N)nc3)c2)c2cncnc21 [Example 473, 6-Cyano-N-[5-(7-isopropyl-7H-pyrrolo[2,3-d]pyrimidine-5-carbonyl)-pyridin-3-yl]-nicotinamide] | 7.28 µM
3 | CC(C)n1cc(C(=O)c2cncc(NC(=O)c3cnn4cccnc34)c2)c2cncnc21 [Example 474, Pyrazolo[1,5-a]pyrimidine-3-carboxylic acid [5-(7-isopropyl-7H-pyrrolo[2,3-d]pyrimidine-5-carbonyl)-pyridin-3-yl]-amide] | 4.42 µM
4 | Cc1ocnc1C(=O)Nc1cncc(C(=O)c2cn(C(C)C)c3ncncc23)c1 [Example 477, 5-Methyl-oxazole-4-carboxylic acid [5-(7-isopropyl-7H-pyrrolo[2,3-d]pyrimidine-5-carbonyl)-pyridin-3-yl]-amide] | 3.03 µM
5 | Cc1cc(C(=O)Nc2cncc(C(=O)c3cn(C(C)C)c4ncncc34)c2)nc(C)n1 [Example 479, 2,6-Dimethyl-pyrimidine-4-carboxylic acid [5-(7-isopropyl-7H-pyrrolo[2,3-d]pyrimidine-5-carbonyl)-pyridin-3-yl]-amide] | 2.16 µM
6 | CC(C)n1cc(C(=O)c2cncc(NC(=O)c3nc(Cl)c(Cl)[nH]3)c2)c2cncnc21 [Example 482, 4,5-Dichloro-1H-imidazole-2-carboxylic acid [5-(7-isopropyl-7H-pyrrolo[2,3-d]pyrimidine-5-carbonyl)-pyridin-3-yl]-amide] | 6.86 µM
7 | CC(C)n1cc(C(=O)c2cncc(NC(=O)c3cnc4[nH]cnc4c3)c2)c2cncnc21 [Example 487, 3H-Imidazo[4,5-b]pyridine-6-carboxylic acid [5-(7-isopropyl-7H-pyrrolo[2,3-d]pyrimidine-5-carbonyl)-pyridin-3-yl]-amide] | 9.8 µM
8 | CC(C)n1cc(C(=O)c2cncc(NC(=O)c3ccncc3)c2)c2cncnc21 [Example 489, N-[5-(7-Isopropyl-7H-pyrrolo[2,3-d]pyrimidine-5-carbonyl)-pyridin-3-yl]-isonicotinamide] | 9.8 µM
9 | Cc1cccnc1C(=O)Nc1cncc(C(=O)c2cn(C(C)C)c3ncncc23)c1 [Example 490, 3-Methyl-pyridine-2-carboxylic acid[5-(7-isopropyl-7H-pyrrolo[2,3-d]pyrimidine-5-carbonyl)-pyridin-3-yl]-amide] | 9.8 µM
10 | CC(C)n1cc(C(=O)c2cncc(NC(=O)c3cnc4occc4c3)c2)c2cncnc21 [Example 491, Furo[2,3-b]pyridine-5-carboxylic acid [5-(7-isopropyl-7H-pyrrolo[2,3-d]pyrimidine-5-carbonyl)-pyridin-3-yl]-amide] | 1.41 µM
11 | CC(C)c1nnc2ccc(C(=O)Nc3cncc(C(=O)c4cn(C(C)C)c5ncncc45)c3)cn12 [Example 492, 3-Isopropyl-1,2,4-triazolo[4,3-a]pyridine-6-carboxylic acid [5-(7-isopropyl-7H-pyrrolo[2,3-d]pyrimidine-5-carbonyl)-pyridin-3-yl]-amide] | 1.69 µM
12 | CC(C)n1cc(C(=O)c2cncc(NC(=O)c3cocn3)c2)c2cncnc21 [Example 493, Oxazole-4-carboxylic acid [5-(7-isopropyl-7H-pyrrolo[2,3-d]pyrimidine-5-carbonyl)-pyridin-3-yl]-amide] | 0.848 µM
13 | CC(C)n1cc(C(=O)c2cncc(NC(=O)c3ncccc3Cl)c2)c2cncnc21 [Example 494, 3-Chloro-pyridine-2-carboxylic acid[5-(7-isopropyl-7H-pyrrolo[2,3-d]pyrimidine-5-carbonyl)-pyridin-3-yl]-amide] | 2.57 µM
14 | CC(C)n1cc(C(=O)c2cncc(NC(=O)c3cnc4nccn4c3)c2)c2cncnc21 [Example 495, Imidazo[1,2-a]pyrimidine-6-carboxylic acid [5-(7-isopropyl-7H-pyrrolo[2,3-d]pyrimidine-5-carbonyl)-pyridin-3-yl]-amide] | 9.8 µM
15 | Cc1cc2nnc(C(=O)Nc3cncc(C(=O)c4cn(C(C)C)c5ncncc45)c3)c(C)n2n1 [Example 498] | 2.34 µM
16 | Cc1ccncc1C(=O)Nc1cncc(C(=O)c2cn(C(C)C)c3ncncc23)c1 [Example 499, N-[5-(7-Isopropyl-7H-pyrrolo[2,3-d]pyrimidine-5-carbonyl)-pyridin-3-yl]-4-methyl-nicotinamide] | 9.8 µM
17 | CC(C)n1cc(C(=O)c2cncc(NC(=O)c3ccc4nnnn4c3)c2)c2cncnc21 [Example 502, Tetrazolo[1,5-a]pyridine-6-carboxylic acid [5-(7-isopropyl-7H-pyrrolo[2,3-d]pyrimidine-5-carbonyl)-pyridin-3-yl]-amide] | 6.28 µM

Stronger by IC50, values ahead:

Row | IC50 | SMILES
18 | 0.805 µM | CC(C)n1cc(C(=O)c2cncc(NC(=O)c3cnc4[nH]ncc4c3)c2)c2cncnc21 [Example 486, 1H-Pyrazolo[3,4-b]pyridine-5-carboxylic acid [5-(7-isopropyl-7H-pyrrolo[2,3-d]pyrimidine-5-carbonyl)-pyridin-3-yl]-amide]
19 | 0.751 µM | CC(C)n1cc(C(=O)c2cncc(NC(=O)c3cnn4c3CCC4)c2)c2cncnc21 [Example 471, 5,6-Dihydro-4H-pyrrolo[1,2-b]pyrazole-3-carboxylic acid [5-(7-isopropyl-7H-pyrrolo[2,3-d]pyrimidine-5-carbonyl)-pyridin-3-yl]-amide]
20 | 0.643 µM | Cc1n[nH]c2ncc(C(=O)Nc3cncc(C(=O)c4cn(C(C)C)c5ncncc45)c3)cc12 [Example 475, 3-Methyl-1H-pyrazolo[3,4-b]pyridine-5-carboxylic acid [5-(7-isopropyl-7H-pyrrolo[2,3-d]pyrimidine-5-carbonyl)-pyridin-3-yl]-amide]
21 | 0.587 µM | CC(C)n1cc(C(=O)c2cncc(NC(=O)c3cc4cscc4cn3)c2)c2cncnc21 [Example 478, Thieno[3,4-c]pyridine-6-carboxylic acid [5-(7-isopropyl-7H-pyrrolo[2,3-d]pyrimidine-5-carbonyl)-pyridin-3-yl]-amide]
22 | 0.531 µM | CC(C)n1cc(C(=O)c2cncc(NC(=O)c3cc(C#N)ccn3)c2)c2cncnc21 [Example 480, 4-Cyano-pyridine-2-carboxylic acid [5-(7-isopropyl-7H-pyrrolo[2,3-d]pyrimidine-5-carbonyl)-pyridin-3-yl]-amide]
23 | 0.523 µM | COCc1cc(C(=O)Nc2cncc(C(=O)c3cn(C(C)C)c4ncncc34)c2)no1 [Example 469, 5-Methoxymethyl-isoxazole-3-carboxylic acid [5-(7-isopropyl-7H-pyrrolo[2,3-d]pyrimidine-5-carbonyl)-pyridin-3-yl]-amide]
24 | 0.313 µM | COCc1cc(C(=O)Nc2cncc(C(=O)c3cn(C(C)C)c4ncncc34)c2)nn1C [Example 481, 5-Methoxymethyl-1-methyl-1H-pyrazole-3-carboxylic acid [5-(7-isopropyl-7H-pyrrolo[2,3-d]pyrimidine-5-carbonyl)-pyridin-3-yl]-amide]
25 | 0.201 µM | CC(C)n1cc(C(=O)c2cncc(NC(=O)c3cc4ccccn4n3)c2)c2cncnc21 [Example 501, Pyrazolo[1,5-a]pyridine-2-carboxylic acid [5-(7-isopropyl-7H-pyrrolo[2,3-d]pyrimidine-5-carbonyl)-pyridin-3-yl]-amide]
26 | 0.199 µM | CC(C)n1cc(C(=O)c2cncc(NC(=O)c3cc(C4CC4)on3)c2)c2cncnc21 [Example 496, 5-Cyclopropyl-isoxazole-3-carboxylic acid [5-(7-isopropyl-7H-pyrrolo[2,3-d]pyrimidine-5-carbonyl)-pyridin-3-yl]-amide]
27 | 0.192 µM | CCc1nc(C)c(C(=O)Nc2cncc(C(=O)c3cn(C(C)C)c4ncncc34)c2)o1 [Example 484, 2-Ethyl-4-methyl-oxazole-5-carboxylic acid [5-(7-isopropyl-7H-pyrrolo[2,3-d]pyrimidine-5-carbonyl)-pyridin-3-yl]-amide]
28 | 0.166 µM | CC(C)n1cc(C(=O)c2cncc(NC(=O)c3nncc4ccccc34)c2)c2cncnc21 [Example 470, Phthalazine-1-carboxylic acid [5-(7-isopropyl-7H-pyrrolo[2,3-d]pyrimidine-5-carbonyl)-pyridin-3-yl]-amide]
29 | 0.118 µM | COc1cc(C(=O)Nc2cncc(C(=O)c3cn(C(C)C)c4ncncc34)c2)nc2c(C)nccc12 [Example 483, 4-Methoxy-8-methyl-1,7-naphthyridine-2-carboxylic acid [5-(7-isopropyl-7H-pyrrolo[2,3-d]pyrimidine-5-carbonyl)-pyridin-3-yl]-amide]
30 | 0.065 µM | Cc1cccc2cc(C(=O)Nc3cncc(C(=O)c4cn(C(C)C)c5ncncc45)c3)nn12 [Example 476, 7-Methyl-pyrazolo[1,5-a]pyridine-2-carboxylic acid [5-(7-isopropyl-7H-pyrrolo[2,3-d]pyrimidine-5-carbonyl)-pyridin-3-yl]-amide]
31 | 0.0646 µM | COc1nccn2cc(C(=O)Nc3cncc(C(=O)c4cn(C(C)C)c5ncncc45)c3)nc12 [Example 488, 8-Methoxy-imidazo[1,2-a]pyrazine-2-carboxylic acid [5-(7-isopropyl-7H-pyrrolo[2,3-d]pyrimidine-5-carbonyl)-pyridin-3-yl]-amide]
32 | 0.0435 µM | CC(C)n1cc(C(=O)c2cncc(NC(=O)c3cc(C4CC4)n[nH]3)c2)c2cncnc21 [Example 497, 5-Cyclopropyl-2H-pyrazole-3-carboxylic acid [5-(7-isopropyl-7H-pyrrolo[2,3-d]pyrimidine-5-carbonyl)-pyridin-3-yl]-amide]
33 | 0.0258 µM | CC(C)n1cc(C(=O)c2cncc(NC(=O)c3cn(C4CCC4)cn3)c2)c2cncnc21 [Example 500, 1-Cyclobutyl-1H-imidazole-4-carboxylic acid [5-(7-isopropyl-7H-pyrrolo[2,3-d]pyrimidine-5-carbonyl)-pyridin-3-yl]-amide]
34 | 0.02 µM | COc1cncc(C(=O)Nc2cncc(C(=O)c3cn(C(C)C)c4ncncc34)c2)c1 [Example 485, N-[5-(7-Isopropyl-7H-pyrrolo[2,3-d]pyrimidine-5-carbonyl)-pyridin-3-yl]-5-methoxy-nicotinamide]
